Laboratory results reported in PMC2821452 (Synapse (New York, N.Y.), 2010).

System: opioid receptors
Test: Affinity for opioid receptors
Assay type: binding
Settings: unpublished data

CC(=O)O[C@@H]1C[C@H]2C(C)(C)C(=O)C=C[C@]2(C)[C@H]2CC[C@@]3(C)[C@H](c4ccoc4)OC(=O)[C@H]4O[C@]43[C@@]21C [Gedunin, (1S,3aS,4aR,4bS,5R,6aR,10aR,10bR,12aS)-5-(acetyloxy)-1-(3-furanyl)-1,5,6,6a,7,10a,10b,11,12,12a-decahydro-4b,7,7,10a,12a-pentamethyl-oxireno[c]phenanthro[1,2-d]pyran-3,8(3aH,4bH)-dione]
affinity for opioid receptors: no affinity
